Results from patent publication US10336774B2, “N-azaspirocycloalkane substituted N-heteroaryl compounds and compositions for inhibiting the activity of SHP2” (NOVARTIS AG, priority 2014, dated 2019).

Biological target: SHP2 (Homo sapiens (Human), UniProt Q06124)
Test: SHP2 Allosteric Inhibition Assay
Format: biochemical
Settings: 0.5 nM SHP2 activated with 0.5 μM peptide IRS1_pY1172(dPEG8)pY1222, surrogate substrate DiFMUP, fluorescence
Description: SHP2 Allosteric Inhibition Assay SHP2 is allosterically activated through binding of bis-tyrosyl-phorphorylated peptides to its Src Homology 2 (SH2) domains. The latter activation step leads to the release of the auto-inhibitory interface of SHP2, which in turn renders the SHP2 protein tyrosine phosphatase (PTP) active and available for substrate recognition and reaction catalysis. The catalytic activity of SHP2 was monitored using the surrogate substrate DiFMUP in a prompt fluorescence assay format. […] After 30-60 minutes incubation at 25° C., the surrogate substrate DiFMUP (Invitrogen, cat# D6567) was added to the reaction and incubated at 25° C. for 30 minutes. […] The inhibitor dose response curves were analyzed using normalized IC50 regression curve fitting with control based normalization.

SHP2, sequence (Q06124 whole entry): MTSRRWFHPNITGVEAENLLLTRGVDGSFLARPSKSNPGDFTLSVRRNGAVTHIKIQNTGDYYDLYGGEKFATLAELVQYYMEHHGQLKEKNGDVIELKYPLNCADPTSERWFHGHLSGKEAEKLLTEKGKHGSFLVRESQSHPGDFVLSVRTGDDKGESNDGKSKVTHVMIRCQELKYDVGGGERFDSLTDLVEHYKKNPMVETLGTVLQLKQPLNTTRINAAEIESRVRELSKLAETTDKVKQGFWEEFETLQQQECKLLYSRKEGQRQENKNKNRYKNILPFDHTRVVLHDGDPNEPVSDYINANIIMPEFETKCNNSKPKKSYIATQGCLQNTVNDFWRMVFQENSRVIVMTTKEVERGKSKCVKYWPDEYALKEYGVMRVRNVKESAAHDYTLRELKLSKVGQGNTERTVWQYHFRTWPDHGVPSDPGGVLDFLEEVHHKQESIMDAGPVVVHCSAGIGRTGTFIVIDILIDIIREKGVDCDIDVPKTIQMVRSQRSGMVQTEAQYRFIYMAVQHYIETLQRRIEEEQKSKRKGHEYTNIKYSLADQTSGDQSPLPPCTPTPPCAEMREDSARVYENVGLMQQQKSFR

| SMILES | IC50 |
| --- | --- |
| Nc1nc(N2CC3(CCC3N)C2)cnc1Sc1cccc(Cl)c1Cl (racemic) [Example 8, 2-(6-amino-5-((2,3-dichlorophenyl)thio)pyrazin-2-yl)-2-azaspiro[3.3]heptan-5-amine] | 5360 nM |
| Nc1nc(N2CCC3(CCC3N)CC2)cnc1Sc1cccc(Cl)c1Cl (racemic) [Example 14, 7-(6-amino-5-((2,3-dichlorophenyl)thio)pyrazin-2-yl)-7-azaspiro[3.5]nonan-1-amine] | 56 nM |
| Nc1nc(N2CCC3(CC2)CCC(F)(F)C3N)cnc1Sc1cccnc1C(F)(F)F (racemic) [Example 82, racemic-8-(6-amino-5-((2-(trifluoromethyl)pyridin-3-yl)thio)pyrazin-2-yl)-2,2-difluoro-8-azaspiro[4.5]decan-1-amine] | 380 nM |
| Nc1nc(N2CCC3(CC2)CCC(F)(F)[C@@H]3N)cnc1Sc1cccnc1C(F)(F)F (racemic) [Example 83a, (R) and (S)-8-(6-amino-5-((2-(trifluoromethyl)pyridin-3-yl)thio)pyrazin-2-yl)-2,2-difluoro-8-azaspiro[4.5]decan-1-amine] | 882 nM |
| Nc1nc(N2CCC3(CC2)CCC(F)(F)[C@@H]3N)cnc1Sc1cccnc1C(F)(F)F (racemic) [Example 83b, (R) and (S)-8-(6-amino-5-((2-(trifluoromethyl)pyridin-3-yl)thio)pyrazin-2-yl)-2,2-difluoro-8-azaspiro[4.5]decan-1-amine] | 306 nM |
| C[C@H]1CCC2(CCN(c3cnc(Sc4cccnc4C(F)(F)F)c(N)n3)CC2)[C@@H]1N (single isomer, unassigned) [Example 86a] | 10 nM |
| C[C@@H]1CCC2(CCN(c3cnc(Sc4cccnc4C(F)(F)F)c(N)n3)CC2)[C@@H]1N (single isomer, unassigned) [Example 86b] | 10 nM |
| NC(=O)c1nc(Sc2cccnc2C(F)(F)F)c(N)nc1N1CCC2(CCCC2N)CC1 (stereo in doubt) [Example 21, (S)-5-amino-3-(1-amino-8-azaspiro[4.5]decan-8-yl)-6-((2-(trifluoromethyl)pyridin-3-yl)thio)pyrazine-2-carboxamide] | 10 nM |
| Nc1nc(N2CCC3(CCCC3N)CC2)nnc1Sc1cccnc1C(F)(F)F (stereo in doubt) [Example 23, (S)-8-(5-amino-6-((2-(trifluoromethyl)pyridin-3-yl)thio)-1,2,4-triazin-3-yl)-8-azaspiro[4.5]decan-1-amine] | 290 nM |
| Nc1nc(N2CCC3(CCCC3N)CC2)cnc1Sc1cccc(Cl)c1Cl (stereo not shown) [Example 2] | 25 nM |
| Nc1nc(N2CCC3(CCC[C@H]3N)CC2)cnc1Sc1cccc(Cl)c1Cl [Example 3] | 10 nM |
| Nc1nc(N2CCC3(CCCCC3N)CC2)cnc1Sc1cccc(Cl)c1Cl (stereo not shown) [Example 4] | 32 nM |
| Nc1nc(N2CCC3(CC2)OCC[C@H]3N)cnc1Sc1cccnc1C(F)(F)F [Example 5] | 349 nM |
| Nc1nc(N2CCC3(CCCCC3N)CC2)cnc1-c1cccc(Cl)c1Cl (stereo not shown) [Example 6] | 74 nM |
| Nc1nc(N2CCC3(CCCC3N)CC2)cnc1-c1cccc(Cl)c1Cl (stereo not shown) [Example 7] | 73 nM |
| Nc1nc(N2CC3(CCC3N)C2)cnc1-c1cccc(Cl)c1Cl (stereo not shown) [Example 9] | 1110 nM |
| Nc1cccc(Sc2ncc(N3CCC4(CC[C@@H]4N)CC3)nc2N)c1Cl [Example 15] | 16 nM |
| Nc1nc(N2CCC3(CCC3N)CC2)cnc1-c1cccc(Cl)c1Cl (stereo not shown) [Example 16] | 145 nM |
| Nc1nc(N2CCC3(CC2)C(N)CCS3(=O)=O)cnc1-c1cccc(Cl)c1Cl (stereo not shown) [Example 18] | 3550 nM |
| Nc1nc(N2CCC3(CC2)C(N)CCS3(=O)=O)cnc1Sc1cccc(Cl)c1Cl (stereo not shown) [Example 19] | 4090 nM |
| Nc1nc(N2CCC3(CC[C@@H]3N)CC2)cnc1Sc1cccnc1C(F)(F)F [Example 20, (S)-7-(6-amino-5-((2-(trifluoromethyl)pyridin-3-yl)thio)pyrazin-2-yl)-7-azaspiro[3.5]nonan-1-amine] | 38 nM |
| NC(=O)c1nc(Sc2cccnc2C(F)(F)F)c(N)nc1N1CCC2(CC[C@@H]2N)CC1 [Example 22] | 53 nM |
| Nc1nc(N2CCC3(CCC[C@@H]3N)CC2)ncc1Sc1cccnc1C(F)(F)F [Example 24, (S)-8-(4-amino-5-((2-(trifluoromethyl)pyridin-3-yl)thio)pyrimidin-2-yl)-8-azaspiro[4.5]decan-1-amine] | 2780 nM |
| NC(=O)c1nc(Sc2ccnc(C(F)(F)F)c2Cl)c(N)nc1N1CCC2(CCC[C@H]2N)CC1 [Example 25, (R)-5-amino-3-(1-amino-8-azaspiro[4.5]decan-8-yl)-6-((3-chloro-2-(trifluoromethyl)pyridin-4-yl)thio)pyrazine-2-carboxamide] | 58 nM |
| Nc1nc(N2CCC3(CCC[C@H]3N)CC2)cnc1Sc1ccnc(N)c1Cl [Example 26, (R)-8-(6-amino-5-((2-amino-3-chloropyridin-4-yl)thio)pyrazin-2-yl)-8-azaspiro[4.5]decan-1-amine] | 14 nM |
| Nc1nc(N2CCC3(CC[C@@H]3N)CC2)cnc1Sc1ccnc(N)c1Cl [Example 27] | 42 nM |

| SMILES | IC50 |
| --- | --- |
| Nc1nc(N2CCC3(CCC[C@H]3N)CC2)cnc1Sc1ccncc1Cl [Example 28, (R)-8-(6-amino-5-((3-chloropyridin-4-yl)thio)pyrazin-2-yl)-8-azaspiro[4.5]decan-1-amine] | 23 nM |
| Nc1nc(N2CCC3(CCC[C@H]3N)CC2)cnc1Sc1cccnc1Cl [Example 29, (R)-8-(6-amino-5-((2-chloropyridin-3-yl)thio)pyrazin-2-yl)-8-azaspiro[4.5]decan-1-amine] | 15 nM |
| Nc1nc(N2CCC3(CCC[C@H]3N)CC2)cnc1Sc1ccnc(Cl)c1Cl [Example 30, (R)-8-(6-amino-5-((2,3-dichloropyridin-4-yl)thio)pyrazin-2-yl)-8-azaspiro[4.5]decan-1-amine] | 3 nM |
| Nc1nc(N2CCC3(CC[C@@H]3N)CC2)cnc1Sc1ccnc(Cl)c1Cl [Example 31, (S)-7-(6-amino-5-((2,3-dichloropyridin-4-yl)thio)pyrazin-2-yl)-7-azaspiro[3.5]nonan-1-amine] | 28 nM |
| Nc1cccc(Sc2ncc(N3CCC4(CCC[C@H]4N)CC3)nc2N)c1Cl [Example 32, (R)-8-(6-amino-5-((3-amino-2-chlorophenyl)thio)pyrazin-2-yl)-8-azaspiro[4.5]decan-1-amine] | 11 nM |
| Nc1nc(N2CCC3(CCC[C@H]3N)CC2)cnc1Sc1ccnc(F)c1Cl [Example 33, (R)-8-(6-amino-5-((3-chloro-2-fluoropyridin-4-yl)thio)pyrazin-2-yl)-8-azaspiro[4.5]decan-1-amine] | 5 nM |
| NC1=NCCC12CCN(c1cnc(Sc3cccnc3C(F)(F)F)c(N)n1)CC2 [Example 34, 8-(6-amino-5-((2-(trifluoromethyl)pyridin-3-yl)thio)pyrazin-2-yl)-2,8-diazaspiro[4.5]dec-1-en-1-amine] | 32 nM |
| Nc1nc(N2CCC3(CC2)OCCC3N)cnc1Sc1cccnc1C(F)(F)F (stereo not shown) [Example 35] | 232 nM |
| NC(=O)c1cc(Sc2cccnc2C(F)(F)F)c(N)nc1N1CCC2(CCC[C@H]2N)CC1 [Example 39, (R)-6-amino-2-(1-amino-8-azaspiro[4.5]decan-8-yl)-5-((2-(trifluoromethyl)pyridin-3-yl)thio)nicotinamide] | 118 nM |
| NC(=O)c1cccc(Sc2ncc(N3CCC4(CCC[C@H]4N)CC3)nc2N)c1Cl [Example 40, (R)-3-((3-amino-5-(1-amino-8-azaspiro[4.5]decan-8-yl)pyrazin-2-yl)thio)-2-chlorobenzamide] | 16 nM |
| Nc1nc(N2CCC3(CC2)C[C@@H](O)C[C@H]3N)cnc1Sc1ccnc(N)c1Cl [Example 41, (2R,4R)-4-amino-8-(6-amino-5-((2-amino-3-chloropyridin-4-yl)thio)pyrazin-2-yl)-8-azaspiro[4.5]decan-2-ol] | 7 nM |
| Nc1nc(N2CCC3(CC2)C[C@@H](O)C[C@H]3N)cnc1Sc1cccnc1C(F)(F)F [Example 42] | 7 nM |
| Nc1nc(N2CCC3(CC2)C[C@H](O)C[C@H]3N)cnc1Sc1cccnc1C(F)(F)F [Example 43] | 6 nM |
| Nc1nc(N2CCC3(CC2)C[C@@H](O)C[C@@H]3N)cnc1Sc1cccnc1C(F)(F)F [Example 44] | 135 nM |
| CO[C@@H]1C[C@@H](N)C2(CCN(c3cnc(Sc4ccnc(N)c4Cl)c(N)n3)CC2)C1 [Example 45] | 44 nM |
| CO[C@@H]1C[C@@H](N)C2(CCN(c3cnc(Sc4ccnc(Cl)c4Cl)c(N)n3)CC2)C1 [Example 46] | 38 nM |
| Nc1nc(N2CCC3(CC2)CC(F)(F)CC3N)cnc1Sc1cccnc1C(F)(F)F (stereo not shown) [Example 47] | 21 nM |
| CO[C@H]1C[C@@H](N)C2(CCN(c3cnc(Sc4cccnc4C(F)(F)F)c(N)n3)CC2)C1 [Example 48] | 9 nM |
| CN[C@@H]1C[C@H](O)CC12CCN(c1cnc(Sc3cccnc3C(F)(F)F)c(N)n1)CC2 [Example 49] | 234 nM |
| NC1=NC(=O)CC12CCN(c1cnc(Sc3cccnc3C(F)(F)F)c(N)n1)CC2 [Example 50] | 610 nM |
| Nc1cc(Sc2ncc(N3CCC4(CCC[C@H]4N)CC3)nc2N)c(Cl)cn1 [Example 51] | 10 nM |
| Nc1nc(N2CCC3(CC2)COC[C@H]3N)cnc1Sc1ccnc(N)c1Cl [Example 52] | 7 nM |
| Nc1nc(N2CCC3(CC2)COC[C@@H]3N)cnc1Sc1ccnc(N)c1Cl [Example 53] | 298 nM |
| Nc1nc(N2CCC3(CC2)COC[C@H]3N)cnc1Sc1cccnc1Cl [Example 54] | 10 nM |
| Nc1nc(N2CCC3(CC2)COC[C@H]3N)cnc1Sc1ccnnc1Cl [Example 55] | 73 nM |
| C[C@@H]1CCC2(CCN(c3cnc(Sc4ccnc(N)c4Cl)c(N)n3)CC2)[C@@H]1N [Example 56] | 9 nM |
